Entries after “also recorded” stand apart in the source; their conditions may differ.
Assays:
[1] = tested on: circulating IL-6, murine IL-8-KC, IL-1α, serum lipid; assay: Serum inflammatory panel and serum lipid in Ang II infused apoE deficient mice; format: in vivo
Experimental: (§1) Six-month old male apoE deficient mice (The Jackson Laboratory, Bar Harbor, Me.) fed a normal chow (Harlan Teklad diet #2018, Harlan Laboratories, Inc., Indianapolis, Ind.) were used in this study. Baseline blood pressure and body weight were measured before surgery. Animals were anesthetized by inhalation of 2% isoflurane. The left common carotid artery was carefully dissected via a midline neck incision under a dissecting microscope, and then ligated with a 6-0 silk ligature just proximal to its bifurcation. At the time of ligation, a minipump (model 2004, Durect Corp., Cupertino, Calif.) filled with Ang II (1.44 mg/Kg/day, Phoenix Pharmaceuticals, Burlingame, Calif.) was implanted subcutaneously. The animals were randomly divided into 2 groups; Vehicle: drinking water containing 5% hydroxypropyl-beta-cyclodextrin (HPBCD) or Compound 2 in drinking water containing 1.5 mg/mL Compound 2 in 5% HPBCD. Each experimental group included 11 animals. After 4 weeks of Ang II infusion, systolic blood pressure was measured in conscious mice using a tail-cuff system (Kent Scientific Corporation, Torrington, Conn.), and the animals were euthanized. Blood samples were collected via cardiac puncture for the measurement of a serum cholesterol profile (IDEXX Veterinary Services, West Sacramento, Calif.) and serum inflammatory panel (Murigenics, Hayward, Calif.) using a mouse cytokine/chemokine panel kit (Millipore, Billerica, Mass.), and tissues were removed for analysis (see below).
(§2) Using the animal model as reported in Martin-McNulty B, et al., 17 Beta-estradiol attenuates development of angiotensin II-induced aortic abdominal aneurysm in apolipoprotein E-deficient mice. Arterioscler Thromb Vasc Biol. 2003; 23(9):1627-1632 and Tham D M, et al., Angiotensin II is associated with activation of NF-kappaB-mediated genes and downregulation of PPARs. Physiol Genomics.

[2] = tested on: VCAM-1, ICAM-1, IL-6, IL-1α and PPARs gene expression in the ascending aortic tissue; assay: Expression of pro-inflammatory genes in ascending aortic tissue; format: in vivo, mice; conditions: vs vehicle
Experimental: as §1, §2

[3] = tested on: angiotensin II infused apolipoprotein E deficient mice; assay: Ligation-induced vascular remodeling in the left carotid artery; format: in vivo
Experimental: as §1, with “Blood samples were collected via cardiac puncture for the measurement of a serum cholesterol profile (IDEXX Veterinary Services, West Sacramento, Calif.) and serum inflammatory panel (Murigenics, Hayward, Calif.) using a mouse cytokine/chemokine panel kit (Millipore, Billerica, Mass.), and tissues were removed for analysis (see below).” left out
Ligation of the left carotid arteries for four weeks induced vascular remodeling, including neointima formation and adventitial proliferation, leading to expansive remodeling as measured by enlargement of vessel diameter. […]

[4] = tested on: angiotensin II infused apolipoprotein E deficient mice; assay: Atherosclerotic lesion development in aortic arch and non-ligated right carotid artery of Ang II infused apoE deficient mice; format: in vivo; conditions: vs vehicle
Experimental: (§3) Six-month old apolipoprotein E deficient mice were chronically infused with angiotensin II (1.44 mg/Kg/day) for 4 weeks to induce an abdominal aortic aneurysm (AAA) and accelerate atherosclerosis development. The mice were treated with Compound 2 (1.5 g/L in drinking water) or vehicle for 4 weeks. […] These effects were associated with a reduction of serum lipid, IL-6, murine IL-8 KC and IL-1α, and down-regulation of gene expressions of ICAM-1, VCAM-1 and IL-6 in the arterial wall. […] The attendant down-regulation of inflammatory mediators and lipid lowering effects may both contribute to the observed vascular protective effects.
as §1, with “Blood samples were collected via cardiac puncture for the measurement of a serum cholesterol profile (IDEXX Veterinary Services, West Sacramento, Calif.) and serum inflammatory panel (Murigenics, Hayward, Calif.) using a mouse cytokine/chemokine panel kit (Millipore, Billerica, Mass.), and tissues were removed for analysis (see below).” left out

[5] = tested on: angiotensin II infused apolipoprotein E deficient mice; assay: Angiotensin II-induced abdominal aortic aneurysm formation in apoE deficient mice; format: in vivo
Experimental: as §3, §1
Chronic infusion of Ang II induced aneurysm formation in the abdominal aorta in 7 of 11 (64%) control apoE deficient mice. Treatment with Compound 2 reduced the incidence of aneurysm formation to 18% (2 of 11). […] There was no type VI aneurysm found in this study.
There were foci of acute hemorrhage present in the intima. The intima was occasionally disrupted by plaques of Mac-3-positive foam cells on the luminal side of the internal elastic lamina. […] The thickness of the media was increased by extracellular matrix depositing between smooth muscle bundles and stained with trichrome as collagen. Elastin fibers in the media were discontinuous and irregularly oriented. The adventitia was markedly thickened by extracellular matrix that was predominately collagen. There was a modest increase in adventitial cellularity including fibroblasts and Mac-3-positive mononuclear cells. […] These vessels did have medial changes including collagen deposition and some increase in elastin fibers, but the internal elastic lamina generally remained intact and retained a distinctive media of smooth muscle.

[6] = ascending aortic tissue / arterial wall

## O=C(Nc1ccc(OC(F)(F)F)cc1)NC1CCN(C(=O)c2cccnc2)CC1 [Compound 2, 1-(1-nicotinoylpiperidin-4-yl)-3-(4-(trifluoromethoxy)phenyl)urea]
[1]; 4 weeks treatment
  serum lipid: reduction
[1]; vs vehicle group
  circulating protein level of IL-6: reduction; also recorded: significantly lower
  circulating protein level of murine IL-8-KC: reduction; also recorded: significantly lower
  serum IL-1α: reduction; also recorded: reduced
[2]; [6]
  ICAM-1 gene expression: down-regulation; also recorded: significantly reduced
  IL-6 gene expression: down-regulation; also recorded: significantly reduced
  VCAM-1 gene expression: down-regulation; also recorded: significantly reduced
[2]; ascending aortic tissue
  IL-1α gene expression: did not significantly affect
  PPARs gene expression: did not significantly affect
[3]; Compound 2 vs vehicle group, four weeks
  average diameter of the ligated carotid arteries: not significantly different
[3]; left carotid artery ligated four weeks
  ligation-induced vascular remodeling (neointima formation, adventitial proliferation, expansive remodeling): not affected
[4]; 1.5 g/L in drinking water, 4 weeks Ang II infusion
  atherosclerotic lesion area (overall): significantly reduced
[4]; 4 weeks
  atherosclerotic lesion size/area in the aortic arch: significantly reduced
[4]; non-ligated right carotid artery, 4 weeks
  atherosclerotic lesion size/area in the carotid artery: significantly reduced
[5]; 1.5 mg/mL in drinking water, 4 weeks, vs vehicle group
  average outer diameter of the suprarenal aorta: significantly smaller
[5]; 1.5 g/L in drinking water, 4 weeks Ang II infusion, vs vehicle
  AAA formation (rate), effect in words: significantly reduced; also recorded: partially prevented
[5]; Compound 2 1.5 mg/mL in drinking water (5% HPBCD), 4 weeks Ang II 1.44 mg/Kg/day, 2 of 11 mice, vehicle 64%
  incidence of aneurysm formation: 18%
[5]; mice that developed aneurysm, vehicle group majority type III
  aneurysm severity measured by category score: majority with type 0 and I
[5]; vs vehicle group (markedly thickened), 4 weeks
  adventitia thickness (histology): relatively thin
[5]; vs vehicle group, 4 weeks
  intimal plaques in aorta (histological staining): fewer intimal plaques
  macrophage and iron accumulation in the adventitia: less macrophage and no iron accumulation
  macrophage and iron accumulation in the intima (Mac-3, Prussian blue): no evidence of macrophage and iron accumulation

— US20100063583A1, “USE OF SOLUBLE EPOXIDE HYDROLASE INHIBITORS IN THE TREATMENT OF INFLAMMATORY VASCULAR DISEASES” (Arete Therapeutics, Inc., priority 2008, published 2010)
